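Cells were grown in 96-well plates and exposed to each compound for 48 hours at five concentrations; endpoints were interpolated linearly between bracketing concentrations, or set to the highest concentration if not reached. GI50: concentration for 50% inhibition of growth. TGI is the concentration that stops growth completely.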
Assays:
Assay in all cases: DTP human tumour cell line panel, 48 h
M14 melanoma = system: M14 melanoma
HCT-116 colon = system: HCT-116 colon
KM12 colon = system: KM12 colon
MOLT-4 leukemia = system: MOLT-4 leukemia
OVCAR-5 ovarian = system: OVCAR-5 ovarian
CCRF-CEM leukemia = system: CCRF-CEM leukemia
K-562 leukemia = system: K-562 leukemia
A549 NSCLC = system: A549 NSCLC
SK-OV-3 ovarian = system: SK-OV-3 ovarian
BT-549 breast = system: BT-549 breast

## CCN(CC)Cc1cc(Nc2nc(NC3CCC(N(C)C)CC3)c3ccccc3n2)ccc1OC (centres undefined)
M14 melanoma
  GI50: 1.91 µM
  TGI: 3.57 µM
HCT-116 colon
  GI50: 3.37 µM
  TGI: 12.8 µM
KM12 colon
  GI50: 3.35 µM
  TGI: 13.2 µM
MOLT-4 leukemia
  GI50: 2.34 µM
  TGI: 6.9 µM
OVCAR-5 ovarian
  GI50: 5 µM
  TGI: 20.7 µM
CCRF-CEM leukemia
  GI50: 2.5 µM
  TGI: 16.8 µM
K-562 leukemia
  GI50: 1.98 µM
  TGI: 5.23 µM
A549 NSCLC
  GI50: 3.59 µM
  TGI: 13.7 µM

## Cc1ccc(S(=O)(=O)OCC/C(=C\[Si](C)(C)C)c2ccccc2)cc1
M14 melanoma
  TGI: > 100 µM
HCT-116 colon
  TGI: > 100 µM
KM12 colon
  TGI: > 100 µM
MOLT-4 leukemia
  TGI: > 100 µM
OVCAR-5 ovarian
  TGI: > 100 µM
CCRF-CEM leukemia
  TGI: > 100 µM
SK-OV-3 ovarian
  TGI: > 100 µM
K-562 leukemia
  TGI: > 100 µM
A549 NSCLC
  TGI: > 100 µM

## CSC1=Nc2c(c(C)c(C)n2COC(CO)CO)C2=NC(=O)CN12
HCT-116 colon
  GI50: > 100 µM
  TGI: > 100 µM
KM12 colon
  GI50: > 100 µM
  TGI: > 100 µM
MOLT-4 leukemia
  GI50: > 100 µM
  TGI: > 100 µM
OVCAR-5 ovarian
  GI50: > 100 µM
  TGI: > 100 µM
CCRF-CEM leukemia
  GI50: > 100 µM
  TGI: > 100 µM
SK-OV-3 ovarian
  GI50: > 100 µM
  TGI: > 100 µM
K-562 leukemia
  GI50: > 100 µM
  TGI: > 100 µM
A549 NSCLC
  GI50: > 100 µM
  TGI: > 100 µM
BT-549 breast
  GI50: > 100 µM
  TGI: > 100 µM

## NNC(=O)C(=O)N/N=C1/CCCC1C(=O)CCC(=O)Nc1ccc(Cl)cc1 (centres undefined)
M14 melanoma
  TGI: > 100 µM
HCT-116 colon
  TGI: > 100 µM
KM12 colon
  TGI: > 100 µM
MOLT-4 leukemia
  TGI: > 100 µM
OVCAR-5 ovarian
  TGI: > 100 µM
CCRF-CEM leukemia
  TGI: > 100 µM
SK-OV-3 ovarian
  TGI: > 100 µM
K-562 leukemia
  TGI: > 100 µM
A549 NSCLC
  TGI: > 100 µM

## OCc1cc2c(cn1)[nH]c1ccc(NCc3ccccc3)cc12
M14 melanoma
  TGI: 37.5 µM
HCT-116 colon
  TGI: 38.4 µM
KM12 colon
  TGI: 43.3 µM
MOLT-4 leukemia
  TGI: 55.8 µM
OVCAR-5 ovarian
  TGI: > 100 µM
CCRF-CEM leukemia
  TGI: 64.7 µM
SK-OV-3 ovarian
  TGI: 86.2 µM
K-562 leukemia
  TGI: > 100 µM
A549 NSCLC
  TGI: > 100 µM

## CC1=N/C(=C\c2ccc(/C=C3/N=C(C)OC3=O)cc2)C(=O)O1
M14 melanoma
  TGI: > 100 µM
HCT-116 colon
  TGI: > 100 µM
KM12 colon
  TGI: > 100 µM
CCRF-CEM leukemia
  TGI: > 100 µM
SK-OV-3 ovarian
  TGI: > 100 µM
K-562 leukemia
  TGI: > 100 µM
A549 NSCLC
  TGI: > 100 µM

## O=c1/c(=C/c2ccccc2[N+](=O)[O-])sc2nnc(-c3cccnc3)n12
M14 melanoma
  TGI: > 100 µM
HCT-116 colon
  TGI: > 100 µM
KM12 colon
  TGI: > 100 µM
MOLT-4 leukemia
  TGI: > 100 µM
OVCAR-5 ovarian
  TGI: > 100 µM
CCRF-CEM leukemia
  TGI: > 100 µM
K-562 leukemia
  TGI: > 100 µM
A549 NSCLC
  TGI: > 100 µM

## O=C(NCCNCCO)c1ccc2c(c1)oc1cc3ccccc3c(=O)n12
M14 melanoma
  GI50: > 50 µM
  TGI: > 50 µM
HCT-116 colon
  GI50: 22.8 µM
  TGI: > 50 µM
KM12 colon
  GI50: 9.32 µM
  TGI: > 50 µM
MOLT-4 leukemia
  GI50: 44.3 µM
  TGI: > 50 µM
SK-OV-3 ovarian
  GI50: > 50 µM
  TGI: > 50 µM
K-562 leukemia
  GI50: 46.7 µM
  TGI: > 50 µM
A549 NSCLC
  GI50: 16.2 µM
  TGI: > 50 µM
BT-549 breast
  GI50: 18.8 µM
  TGI: > 50 µM

## COc1cc(Nc2cnc3ccc(C(F)(F)F)cc3n2)cc(OC)c1OC
HCT-116 colon
  TGI: > 100 µM
MOLT-4 leukemia
  TGI: > 100 µM
OVCAR-5 ovarian
  TGI: > 100 µM
CCRF-CEM leukemia
  TGI: > 100 µM
A549 NSCLC
  TGI: > 100 µM

## COC(=O)CCC(NC(=S)N/N=C/c1cccs1)C(=O)OC (centres undefined)
M14 melanoma
  TGI: > 100 µM
HCT-116 colon
  TGI: > 100 µM
KM12 colon
  TGI: > 100 µM
OVCAR-5 ovarian
  TGI: > 100 µM
SK-OV-3 ovarian
  TGI: > 100 µM
K-562 leukemia
  TGI: > 100 µM
A549 NSCLC
  TGI: > 100 µM
